# Literature values, collected in patent US20130029928A1 (priority 2010, published 2013).
# pIC50: −log10 of the molar value. Where two headings read alike, the source gives them in different places.
# Legend:
# Breast cancer cell lines = conditions: read-out: IC50 (Concentration, literature); Mol. Cancer Ther. (2002); cited from earlier work
# [1] = following oral exposure; literature; cited from earlier work
# [2] = target: liver X receptor β (LXRβ) (Homo sapiens, UniProt P55055); conditions: ref (14); cited from earlier work
# Sequence of liver X receptor β (LXRβ) (P55055 whole entry, species assumed): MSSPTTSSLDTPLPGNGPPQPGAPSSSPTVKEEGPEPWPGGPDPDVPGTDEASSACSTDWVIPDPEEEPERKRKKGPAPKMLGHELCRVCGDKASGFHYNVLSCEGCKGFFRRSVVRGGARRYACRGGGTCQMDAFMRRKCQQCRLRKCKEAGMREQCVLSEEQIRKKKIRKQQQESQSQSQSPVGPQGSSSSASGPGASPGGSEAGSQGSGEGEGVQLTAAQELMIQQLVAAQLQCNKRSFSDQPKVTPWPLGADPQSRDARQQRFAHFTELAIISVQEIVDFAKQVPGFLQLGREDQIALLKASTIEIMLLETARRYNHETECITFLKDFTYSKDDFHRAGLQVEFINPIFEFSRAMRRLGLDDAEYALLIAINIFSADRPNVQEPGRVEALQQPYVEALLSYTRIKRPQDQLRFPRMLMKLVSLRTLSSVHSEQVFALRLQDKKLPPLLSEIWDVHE
# rats [3] = conditions: cited from earlier work
# [4] = target: retinoid X receptor α (RXRα) (Homo sapiens, UniProt P19793); conditions: ref (14); cited from earlier work
# Sequence of retinoid X receptor α (RXRα) (P19793 whole entry, species assumed): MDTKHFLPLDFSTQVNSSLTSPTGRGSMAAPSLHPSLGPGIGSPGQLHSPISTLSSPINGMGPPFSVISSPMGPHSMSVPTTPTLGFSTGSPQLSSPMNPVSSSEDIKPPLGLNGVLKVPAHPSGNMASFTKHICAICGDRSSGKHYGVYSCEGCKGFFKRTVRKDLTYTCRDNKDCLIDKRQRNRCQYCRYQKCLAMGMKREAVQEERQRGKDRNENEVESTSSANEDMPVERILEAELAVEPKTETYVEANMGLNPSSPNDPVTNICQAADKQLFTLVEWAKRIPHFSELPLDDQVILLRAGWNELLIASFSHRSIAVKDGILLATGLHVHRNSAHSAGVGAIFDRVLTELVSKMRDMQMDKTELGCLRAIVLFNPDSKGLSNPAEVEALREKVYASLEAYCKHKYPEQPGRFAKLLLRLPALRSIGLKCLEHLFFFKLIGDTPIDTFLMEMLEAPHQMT
# rats [5] = conditions: doses below those causing maternal toxicity; cited from earlier work
# [6] = cited from earlier work
# [7] = in vivo; cited from earlier work
# primary rat hepatocytes = conditions: Bjork (2009); cited from earlier work
Structure (SMILES),pIC50 (Breast cancer cell lines),metabolism [1],activation of LXRβ [2],"tumour incidence (liver, pancreas acinar cell, testes Leydig cell adenomas) (rats [3]; 30 ppm in the diet)","tumour incidence (liver, pancreas acinar cell, testes Leydig cell adenomas) (rats [3]; 300 ppm in the diet)",activation of RXRα [4],teratogenic or foetotoxic effects (rats [5]),"clearance of blood levels ([6]; female rats, 24 hrs after dosing)","accumulation in blood ([6]; female rats, 25 mg/kg oral after 10 previous similar doses)",extent of biliary excretion ([6]; female rats),"time to peak blood levels ([6]; single gavage 25 mg/kg, rats)","total radioactivity absorbed ([6]; single oral dose 14C-PFOA 11 mg/kg, male rats, at 24 hrs)",acute oral toxicity [7],concentration causing increased expression of DDIT3/CHOP/GADD153 (primary rat hepatocytes)
N#CC(=C(/N)Sc1ccccc1N)/C(C#N)=C(\N)Sc1ccccc1N [U0126],4.70 to 5.00,–,–,–,–,–,–,–,–,–,–,–,–,–
"O=C(O)C(F)(F)C(F)(F)C(F)(F)C(F)(F)C(F)(F)C(F)(F)C(F)(F)F [PFOA, perfluorooctanoic acid]",–,not metabolised,Neither liver X receptor β (LXRβ) nor the common heterodimerization partner retinoid X receptor α (RXRα) are activated,not at 30 ppm,increased incidence of benign tumours,Neither liver X receptor β (LXRβ) nor the common heterodimerization partner retinoid X receptor α (RXRα) are activated,no teratogenic or foetotoxic effects,> 95%,does not appear to accumulate,< 1.0%,1 to 2 h,at least 93%,moderate acute oral toxicity,≥ 30 µM
